{"source": "paper PMC5640650", "about": "“NatD promotes lung cancer progression by preventing histone H4 serine phosphorylation to activate Slug expression” (Nature Communications, 2017)", "type_in_all_cases": "cell-based, human", "key": {"H1299 cells [1]": {"tested_on": "H1299 cells", "assay": "Cell growth (CCK-8), H1299 cells", "details": "vs Scr", "method": "The in vitro viability of H1299 cells was assessed using the Cell Counting Kit-8 (CCK-8, Dojindo, Japan) according to the manufacturer’s protocol. Flow cytometric analysis of apoptosis was assessed by Annexin V and PI staining using the Annexin V-APC Apoptosis Detection Kit (KeyGEN BioTECH, China) according to the manufacturer’s guide. For cell cycle analysis, cells were harvested and fixed at 4 °C overnight with 70% ethanol. Cells were washed twice with PBS, and their DNA was stained using a Cell Cycle Detection Kit (KeyGEN BioTECH, China). The samples were analyzed by flow cytometry (Becton Dickinson, NJ, USA), and results were analyzed with FlowJo software according to the manufacturer’s instructions. For the wound healing assay, cells were plated to confluence in a 6-well plate, and the cell monolayer was scratched using a pipette tip. Representative photos were taken using a digital camera mounted on an inverted microscope (Olympus) at indicated times. Live cell imaging was performed using the HoloMonitor M4 time-lapse cytometer (Phase Holographic Imaging, Sweden). […]\nSupplementary Figure 1. […] (b and c) Representative images from three independent experiments of apoptosis (b) and cell cycle analysis (c) of Scr and NatD-KD H1299 cells analyzed by flow cytometry. […]"}, "NatD": {"tested_on": "NatD", "assay": "Quantitative real-time PCR / western blot of NatD knockdown", "details": "H1299 cells; for NatD mRNA, remaining relative to scrambled control: stable lentiviral shRNA, qPCR normalized to GAPDH, three independent experiments; for NatD protein level: western blot, vs Scr", "description": "(§1) Fig. 2 NatD is required for lung cancer cell migration and invasion in vitro. a Quantitative real-time PCR analysis of NatD mRNA levels normalized to GAPDH in scrambled control cells (Scr) and NatD-KD1 and NatD-KD2 cells. Results are shown as mean ± s.d. from three independent experiments. Two-tailed Student’s t-test was used. **P < 0.01 compared to Scr control. b Western blot analysis of NatD and Nt-ac-H4 protein levels in scrambled, NatD-KD1, and NatD-KD2 cells. GAPDH and histone H4 served as loading controls. Blots are representative of three independent experiments. c Representative images from wound healing assay of scrambled, NatD-KD1, and NatD-KD2 cells from three independent experiments (left panels). Wound healing assay results are quantified in the histogram (right panel). Results are shown as mean ± s.d. from three independent experiments. Two-tailed Student’s t-test was used. **P < 0.01 compared to Scr control. d Representative images of the migration of scrambled, NatD-KD1, and NatD-KD2 cells in a time-lapse cell tracker migration assay from three independent experiments. Representative images of the migration (e) and invasion (f) of scramble, NatD-KD1, and NatD-KD2 cells with transwell assay from three independent experiments (top panel). Cell counts for the corresponding assays of at least four random microscope fields (×100 magnification). Cell migration and invasion are expressed as a percentage of control (bottom panel). Results are shown as mean ± s.d. from three independent experiments. Two-tailed Student’s t-test was used. **P < 0.01 compared to Scr control\nThe small interfering RNA (siRNA) target sequences for RNA interference of NatD were inserted into the XhoI/HpaI sites in the pLL3.7 lentiviral vector according to the manufacturer’s recommendations (American Type Culture Collection, USA). The oligonucleotides were:\nTotal RNA from tissue samples and cultured cells was extracted using TRIzol reagent (Invitrogen). cDNAs were synthesized with a HiScript 1st Strand cDNA Synthesis Kit (Vazyme Biotech, China). Quantitative RT-PCR was performed using a FastStart Universal SYBR Green Master (Roche) according to the manufacturer’s instructions in a Rotor-Gene 6000 (Corbett Research) in a final volume of 20 μl. Cycling conditions were 94 °C for 15 s, 60 °C for 30 s, and 72 °C for 30 s. Each reaction was performed in triplicate. The primer sequences for RT-PCR are listed in Supplementary Table 2 and Table 3."}, "H1299 cells [2]": {"tested_on": "H1299 cells", "assay": "Time-lapse cell-tracking, H1299 cells", "details": "HoloMonitor M4, vs Scr", "description": "Fig. 2 NatD is required for lung cancer cell migration and invasion in vitro. a Quantitative real-time PCR analysis of NatD mRNA levels normalized to GAPDH in scrambled control cells (Scr) and NatD-KD1 and NatD-KD2 cells. Results are shown as mean ± s.d. from three independent experiments. Two-tailed Student’s t-test was used. **P < 0.01 compared to Scr control. b Western blot analysis of NatD and Nt-ac-H4 protein levels in scrambled, NatD-KD1, and NatD-KD2 cells. GAPDH and histone H4 served as loading controls. Blots are representative of three independent experiments. c Representative images from wound healing assay of scrambled, NatD-KD1, and NatD-KD2 cells from three independent experiments (left panels). Wound healing assay results are quantified in the histogram (right panel). […] Cell migration and invasion are expressed as a percentage of control (bottom panel). […]\nThe in vitro viability of H1299 cells was assessed using the Cell Counting Kit-8 (CCK-8, Dojindo, Japan) according to the manufacturer’s protocol. Flow cytometric analysis of apoptosis was assessed by Annexin V and PI staining using the Annexin V-APC Apoptosis Detection Kit (KeyGEN BioTECH, China) according to the manufacturer’s guide. […] The samples were analyzed by flow cytometry (Becton Dickinson, NJ, USA), and results were analyzed with FlowJo software according to the manufacturer’s instructions. […]"}, "histone H4": {"tested_on": "histone H4", "assay": "Western blot of histone H4 modifications, H1299 cells", "details": "total lysates, vs Scr", "description": "as §1\nFig. 6 Nt-acetylation of histone H4 antagonizes phosphorylation of histone H4 serine 1 to regulate Slug expression. a Western blot analysis of indicated histone H4 modifications in Scr and NatD-KD H1299 cells. Histone H4 served as a loading control. b ChIP analysis of the enrichment of indicated histone H4 modifications on the Slug promoter in Scr and NatD-KD H1299 cells. IgG served as a negative control. Results are shown as mean ± s.d. from three independent experiments; two-tailed Student’s t-test, *P < 0.05, **P < 0.01 compared with the Scr control. c ChIP analysis of the enrichment of H3K4me3 and H3K27me3 on the Slug promoter in Scr and NatD-KD H1299 cells. IgG served as a negative control. Results are shown as mean ± s.d. from three independent experiments; two-tailed Student’s t-test, **P < 0.01 compared with the Scr control. d Western blot analysis of indicated proteins from H1299 cells overexpressing NatDΔ or wild-type NatD. Histone H4 served as a loading control. e ChIP analysis of the enrichment of Nt-ac-H4 and H4S1ph on Slug promoter in H1299 cells overexpressing NatDΔ or wild-type NatD. IgG served as a negative control. Results are shown as mean ± s.d. from three independent experiments; two-tailed Student’s t-test, *P < 0.05, **P < 0.01 compared with the wild-type control\nCellular proteins were extracted by RIPA lysis buffer at high salt concentration (420 mM NaCl), and western blot analysis was performed in accordance with standard protocols. Scans of enhanced chemiluminescence (ECL) films showing uncropped blots are presented in Supplementary Fig. 10. […]"}}}
{"substance": "NatD-KD1: Human NatD shRNA KD1: 5′-GATGAAGAAGGTTATGTTA-3′, lentiviral (shRNA, lentiviral)", "values": [{"measurement": "cell growth rate", "setting": "H1299 cells [1]", "result": "grew at a similar rate"}, {"measurement": "NatD mRNA, remaining relative to scrambled control", "setting": "NatD", "result": 30, "unit": "%"}, {"measurement": "NatD protein level", "setting": "NatD", "result": "decreased"}, {"measurement": "random motility", "setting": "H1299 cells [2]", "result": "lower random motility"}, {"measurement": "level of Nt-ac-H4", "setting": "histone H4", "result": "significantly reduced"}]}
{"substance": "NatD-KD2: Human NatD shRNA KD2: 5′-GGTTGAATGTCTCCATTGA-3′, lentiviral (shRNA lentiviral)", "values": [{"measurement": "cell growth rate", "setting": "H1299 cells [1]", "result": "grew at a similar rate"}, {"measurement": "NatD knockdown quality", "setting": "NatD; KD2 vs KD1", "result": "somewhat better knockdown"}, {"measurement": "NatD mRNA, remaining relative to scrambled control", "setting": "NatD", "result": 30, "unit": "%"}, {"measurement": "NatD protein level", "setting": "NatD", "result": "decreased"}, {"measurement": "random motility", "setting": "H1299 cells [2]", "result": "lower random motility"}, {"measurement": "level of H4R3me2a", "setting": "histone H4", "result": "slightly increased"}, {"measurement": "level of H4R3me2s", "setting": "histone H4", "result": "slightly decreased"}, {"measurement": "level of H4S1ph", "setting": "histone H4", "result": "significantly increased"}, {"measurement": "level of Nt-ac-H4", "setting": "histone H4", "result": "significantly reduced"}, {"measurement": "levels of H4K5ac, H4K8ac, or H4K12ac", "setting": "histone H4", "result": "No significant change"}, {"measurement": "level of Nt-ac-H4", "setting": "histone H4; listed as NatD knockdown", "result": "greatly decreased"}]}
